Measured values reported in US20160339022A1, “TREATMENT OF NEUROBLASTOMA WITH HISTONE DEACETYLASE INHIBITORS” (Acetylon Pharmaceuticals Inc., priority 2015, published 2016).

How the values were obtained:
SK-N-BE(2) cells [1] = assay: Differentiation Index Score based on a gene signature; assay type: cell-based; conditions: 48 hours, FIG. 1
Experimental: A subset of the fingerprint genes are assessed for each treatment group, and a score is assigned to each gene based on the degree of expression and weighted with a (+) or (−) sign based on if it increased or decreased as predicted. The scores are summed to generate a single Index value for each treatment group, set to ATRA signal and compared. It is observed that HDAC1/2i induce gene expression consistent with differentiation and that in combination with ATRA, the differentiation effect is enhanced.
The combination of the listed compounds with retinoic acid results in a greater differentation index score, illustrating enhanced differentiation in the combination setting.

neuroblastoma cells [2] = assay: Morphology changes / dendrite outgrowth by inverted microscope; assay type: cell-based; conditions: 3, 5 and 7 days
Experimental: Cells were cultured for 3, 5, and 7 days with the indicated treatments. Images were captured on an inverted microscope.

SK-N-BE(2) cells [3] = assay: Microarray gene expression and gene set enrichment analysis; assay type: cell-based, Homo sapiens; conditions: 3 μM Compound B, 1 μM ATRA or combination, microarray 48 hr, fold relative to the DMSO control group
Experimental: Gene expression from cells treated with ATRA single agent and combination of ATRA and HDAC1/2i were assessed at 2 hrs and 48 hrs of treatment (FIG. 12A). […] A function analysis of the data using the Ingenuity IPA platform was performed by Qiagen; overlap is observed in the top hits between treatment groups.
Genes that statistically increase over 2-fold relative to the DMSO control were mapped on a Venn diagram (FIG. 12B).
Neuroblastoma cell line SK-N-BE(2) cells were treated with 3 μM Compound B, 1 μM ATRA, or a combination of both at 37° C. over 2 hours (FIG. 12A) or 48 hours (FIG. 12B) and compared to the solvent (DMSO) control.

SK-N-BE2 cells = assay: Levels of proteins related to cell-cycle progression; assay type: cell-based; conditions: 3 days in culture
Experimental: The levels of proteins related to cell-cycle progression were assessed following treatment (SK-N-BE2 cells; 3 days in culture) with DMSO (control), Compound B alone, ATRA alone, and Compound B in combination with ATRA. p21 is increased by ATRA and enhanced by Compound B. Cyclin D1 is decreased in the combination setting relative to ATRA as a single agent. CDK2 and CDK4 are decreased in the combination setting with Compound B and ATRA.

neuroblastoma cells [4] = assay: Cell cycle analysis (Click-iT EdU and FxCycle PI/RNase staining); assay type: cell-based; conditions: 7 days, with ATRA
Experimental: Cells were cultured for 7 days with the indicated treatments and then stained with the Invitrogen Click-iT EdU kit and the Invitrogen FxCycle […] kits to assess frequency of cells in each stage of the cell cycle. […] The effect is enhanced by Compound B in a dose dependent manner.
In combination with ATRA, the effect on p21 is enhanced at concentrations that induce gene expression changes consistent with differentiation. At 7 days of treatment, combination effects are observed on the cell cycle, with a decreasing frequency of s-phase cells and an increasing sub-G1 population (FIG. 6B). […] EDU is increased in cells in s-phase while PI intensity indicates relative levels of DNA. Using these metrics, we illustrate the frequency of cells in the indicated states of the cell cycle.

SMILES: Nc1ccc(-c2cccs2)cc1NC(=O)c1ccc2c(c1)cc(C1CC1)n2CCN1CCOCC1 [Compound B, N-(2-amino-5-(thiophen-2-yl)phenyl)-2-cyclopropyl-1-(2-morpholinoethyl)-1H-indole-5-carboxamide]
- Differentiation Index Score (gene signature) (SK-N-BE(2) cells [1]): induces gene expression changes consistent with differentiation
- morphology / dendrite outgrowth (neuroblastoma cells [2]): does not alter morphology
- Gene Expression Change, ACSL3 (SK-N-BE(2) cells [3]): 2.23
- Gene Expression Change, ATP7A (SK-N-BE(2) cells [3]): 1.98
- Gene Expression Change, CDKN1A (SK-N-BE(2) cells [3]): 1.93
- Gene Expression Change, CRABP2 (SK-N-BE(2) cells [3]): 1.18
- Gene Expression Change, CTSH (SK-N-BE(2) cells [3]): 3.05
- Gene Expression Change, CYP26A1 (SK-N-BE(2) cells [3]): 0.99
- Gene Expression Change, CYP26B1 (SK-N-BE(2) cells [3]): 1.87
- Gene Expression Change, DHRS3 (SK-N-BE(2) cells [3]): 1.03
- Gene Expression Change, DUSP6 (SK-N-BE(2) cells [3]): 3.33
- Gene Expression Change, ETS1 (SK-N-BE(2) cells [3]): 3.00
- Gene Expression Change, HSPA5 (SK-N-BE(2) cells [3]): 3.78
- Gene Expression Change, IER3 (SK-N-BE(2) cells [3]): 2.33
- Gene Expression Change, NFKBIZ (SK-N-BE(2) cells [3]): 1.95
- Gene Expression Change, PCDH18 (SK-N-BE(2) cells [3]): 2.53
- Gene Expression Change, PTGER2 (SK-N-BE(2) cells [3]): 1.41
- Gene Expression Change, RARB (SK-N-BE(2) cells [3]): 1.14
- Gene Expression Change, RET (SK-N-BE(2) cells [3]): 1.34
- p21 level (SK-N-BE2 cells): enhanced
- effect on ATRA-mediated s-phase reduction and sub-G1 increase (neuroblastoma cells [4]): enhanced
